One data set concerns MT2. Kind of data set: Cytotoxicity against human MT2 cells. Format: cell-based.
Data set [1] has as its system Human immunodeficiency virus 1. Kind of data set: Antiviral activity against HIV1 3B in MT2 cells assessed as inhibition of viral-mediated T-cell death by MTT method. Format: functional, organism-based. The note with it: Human immunodeficiency virus 1, 3B. For orientation: Formazan colour is commonly taken as a measure of viable cells.
Data set [2] is described as follows: Therapeutic index, ratio of IC50 for human MT2 cells to EC50 for HIV1 3B. Format: cell-based. The note with it: read-out: Ratio IC50/EC50.

Turning to `COc1ccc(OC)c(CCNC(=S)Nc2ccc(Br)cn2)c1`, the IC50 – broadly, the concentration needed to halve the response being measured – with MT2 is over 1000 nM. The EC50 (in general, the concentration needed to bring the measured effect to its halfway point) in data set [1] is 42 nM. For the same compound, the selectivity ratio in data set [2] was over 24.
The corresponding values for `C#CCCOc1ccc(OC)cc1CCNC(=S)Nc1ccc(Br)cn1` are over 1000 nM, 23 nM and over 44.
`COc1ccc(OCCC#Cc2cn(C3C=CC(CO)O3)c(=O)[nH]c2=O)c(CCNC(=S)Nc2ccc(Br)cn2)c1` (configuration not stated) showed an IC50 in the data set with MT2 of 17000 nM. In data set [1], the half-maximal effective concentration (EC50) came out at 250 nM. The selectivity ratio in data set [2] stood at 68.
The corresponding values for `Cc1cn([C@H]2C=C[C@@H](CO)O2)c(=O)[nH]c1=O` [STAVUDINE] are over 100000 nM, 2000 nM and over 50.

Source of the values: ChEMBL document CHEMBL1139161, “[d4U]-butyne-[HI-236] as a non-cleavable, bifunctional NRTI/NNRTI HIV-1 reverse-transcriptase inhibitor” (Bioorg Med Chem Lett, 2007).
